The target in one data set is T1, SARS-CoV-2 PLpro (Severe acute respiratory syndrome coronavirus 2, UniProt P0DTD1).
T1 construct: containing 60 nM papain-like protease
The experiment in a line: biochemical. The settings on record: 60 nM papain-like protease, 50 μM Z-RLRGG-AMC, pH 7.5, 37° C.; read-out: SARS-CoV-2 PLpro IC50.

Data set [1] relates to human Hep G2 cells (ATCC HB-8065). The experiment in a line: Cytotoxicity in Hep G2 cells (CellTiter-Glo). The class given is cell-based. The note with it: Hep G2 cells, 100 μM test article, 24-hour exposure.

Where a name gives a salt, the structure may show the parent alone.

This note sets out measurements from patent publication US20240383852A1, “ANTI-VIRAL COMPOUNDS” (INFEX Therapeutics Limited, priority 2021, published 2024).

`Cc1ccc(N2CCN(C)CC2)cc1C(=O)N[C@H](C)c1ccc(OCCO)c(-c2cnn(C)c2)c1` [Example 282, N-[(1R)-1-[4-(2-Hydroxyethoxy)-3-(1-methylpyrazol-4-yl)phenyl]ethyl]-2-methyl-5-(4-methylpiperazin-1-yl)benzamide]: the IC50 on SARS-CoV-2 PLpro is < 2000 nM. Further, the “% Cell Viability” value in data set [1] was 100.0%.

In the case of `Cc1ccc(N2CCN(C)CC2)cc1C(=O)N[C@H](C)c1cccc(-c2cccc(C(C)(C)O)c2)c1` [Example 45, N-[(1R)-1-[3-[3-(1-Hydroxy-1-methyl-ethyl)phenyl]phenyl]ethyl]-2-methyl-5-(4-methylpiperazin-1-yl)benzamide], at SARS-CoV-2 PLpro, the IC50 was < 2000 nM. In addition, the “% Cell Viability” value in data set [1] is recorded as 59.5%.

Turning to `COc1ccc([C@@H](C)NC(=O)c2cc(N3C[C@H]4C[C@@H]3CN4C)ccc2C)cc1-c1csc(C(=O)N(C)C)c1` [Example 286, 4-[2-Methoxy-5-[(1R)-1-[[2-methyl-5-[(1R,4R)-5-methyl-2,5-diazabicyclo[2.2.1]heptan-2-yl]benzoyl]amino]ethyl]phenyl]-N,N-dimethyl-thiophene-2-carboxamide], the IC50 at SARS-CoV-2 PLpro is < 2000 nM. The “% Cell Viability” value in data set [1] is listed as 50.3%.

As for `COc1cc(-c2cn(C)nc2C)cc([C@@H](C)NC(=O)c2cc(N3CC4CNCC4C3)ccc2C)c1` (stereo partly drawn) [Example 268, 5-(2,3,3a,4,6,6a-Hexahydro-1H-pyrrolo[3,4-c]pyrrol-5-yl)-N-[(1R)-1-[3-(1,3-dimethylpyrazol-4-yl)-5-methoxy-phenyl]ethyl]-2-methyl-benzamide], the IC50 on SARS-CoV-2 PLpro is < 2000 nM. Further, in data set [1], the “% Cell Viability” value came out at 75.0%.

Regarding `Cc1ccc(N2CCN(C)CC2)cc1C(=O)N[C@H](C)c1cccc(-c2ccc(N3CCN(CCC(=O)O)CC3)cc2)c1` [Example 165, 3-[4-[4-[3-[(1R)-1-[[2-Methyl-5-(4-methylpiperazin-1-yl)benzoyl]amino]ethyl]phenyl]phenyl]piperazin-1-yl]propanoic acid], the half-maximal inhibitory concentration (IC50) on SARS-CoV-2 PLpro is < 2000 nM. Further, the “% Cell Viability” value in data set [1] is 132%.

On to `COc1ccc([C@@H](C)NC(=O)c2cc(N3CCCN(C)CC3)ccc2C)cc1OC` [Example 13, N-[(1R)-1-(3,4-Dimethoxyphenyl)ethyl]-2-methyl-5-(4-methyl-1,4-diazepan-1-yl)benzamide], for which, on SARS-CoV-2 PLpro, the IC50 is < 10000 nM. For the same molecule, the “% Cell Viability” value in data set [1] amounted to 103.8%.

Take `Cc1ccc(N2CCN(C)CC2)cc1C(=O)N[C@H](C)c1cccc(C#N)c1` [Example 34, N-[(1R)-1-(3-Cyanophenyl)ethyl]-2-methyl-5-(4-methylpiperazin-1-yl)benzamide]: the concentration for half-maximal inhibition (IC50) on SARS-CoV-2 PLpro is < 10000 nM. The “% Cell Viability” value in data set [1] is listed as 97.8%.

As for `COc1ccc([C@@H](C)NC(=O)c2cc(N3CCN(C)CC3)ccc2C)cc1F` [Example 185, N-[(1R)-1-(3-Fluoro-4-methoxy-phenyl)ethyl]-2-methyl-5-(4-methylpiperazin-1-yl)benzamide], on SARS-CoV-2 PLpro, the IC50 is < 10000 nM. Moreover, the “% Cell Viability” value in data set [1] amounted to 5.6%.

Consider `Cc1ccc(N2CCN(C)CC2)cc1C(=O)N[C@H](C)c1cccc(-c2cccc(C(O)CO)c2)c1` (stereo partly drawn) [Example 71, N-[(1R)-1-[3-[3-(1,2-Dihydroxyethyl)phenyl]phenyl]ethyl]-2-methyl-5-(4-methylpiperazin-1-yl)benzamide], for which, on SARS-CoV-2 PLpro, the IC50 is < 2000 nM. In addition, the “% Cell Viability” value in data set [1] is given as 68.4%.

For `Cc1ccc(N2CCN(C)CC2)cc1C(=O)N[C@H](C)c1cccc(-c2ccc(N3CCNCC3)cc2)c1` [Example 73, 2-Methyl-5-(4-methylpiperazin-1-yl)-N-[(1R)-1-[3-(4-piperazin-1-ylphenyl)phenyl]ethyl]benzamide dihydrochloride salt], the IC50 on SARS-CoV-2 PLpro is < 2000 nM. The “% Cell Viability” value in data set [1] turned out to be 0.6%.

With `Cc1ccc(N2CCN(C)CC2)cc1C(=O)N[C@H](C)c1ccc(O)c(-c2cnn(C)c2)c1` [Example 276, N-[(1R)-1-[4-Hydroxy-3-(1-methylpyrazol-4-yl)phenyl]ethyl]-2-methyl-5-(4-methylpiperazin-1-yl)benzamide], on SARS-CoV-2 PLpro, the IC50 was < 2000 nM. Also, the “% Cell Viability” value in data set [1] is 81.6%.
